The source made the active and inactive calls.
What was measured:
Nonstructural protein 1 = Nonstructural protein 1 (Influenza A virus, UniProt Q194T2); assay type: functional, Influenza A virus (A/California/07/2009(H1N1))
[1] = Luminescence Cell-Based Dose Confirmation HTS to Identify Activators of 5'UTR Stem-Loop Driven Alpha-Synuclein mRNA Translation in H4 Neuroglioblastoma Cells. [Related pubchem assays: 1829 (Project Summary), 1814 (Primary HTS)]; assay type: functional
[2] = Luminescence Cell-Based Dose Response HTS to Identify Activators of Luciferase Translation or Activity in H4 […] Cells. [Related pubchem assays: 1829 (Project Summary), 1814 (Primary HTS)]; assay type: functional
H4 = experiment: Luminescence Cell-Based Dose Response HTS to Identify Activators of 5'UTR Stem-Loop Driven Prion Protein mRNA Translation in H4 Neuroglioblastoma Cells. [Related pubchem assays: 1829 (Project Summary), 1814 (Primary HTS)]; assay type: functional; details: Homo sapiens
[3] = target: T1, Carboxy-terminal domain RNA polymerase II polypeptide A small phosphatase 1 (Homo sapiens, UniProt Q9GZU7); experiment: inhibitors of CTDSP1, concentration-response testing, biochemical assay, absorbance-based, actives from ultra-high-throughput screening (AID 540297); assay type: functional
T1 sequence (Q9GZU7 whole entry): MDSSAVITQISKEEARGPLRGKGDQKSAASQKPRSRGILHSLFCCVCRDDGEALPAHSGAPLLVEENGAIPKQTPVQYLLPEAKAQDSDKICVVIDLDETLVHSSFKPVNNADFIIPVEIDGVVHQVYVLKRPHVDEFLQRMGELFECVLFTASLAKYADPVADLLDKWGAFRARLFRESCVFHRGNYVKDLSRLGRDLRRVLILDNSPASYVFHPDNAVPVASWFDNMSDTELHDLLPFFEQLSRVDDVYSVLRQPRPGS

[4] = NIH-3T3 fibroblast cytotoxicity, dose response, cytotoxicity control, cell-based, fluorescence, Alamar Blue, secondary assay (AID 2327); assay type: functional;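 also: NIH-3T3 mouse fibroblasts cultured with fluconazole at 8 µg/mL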
[5] = tested on: Streptococcus sp. 'group A'; experiment: growth inhibition of control SK(-) GAS strain, dose response, counter-screen for streptokinase expression inhibitor project, luminescence, kanamycin, BacTiterGlo, confirmation (AID 1900); assay type: functional, organism-based
[6] = C. albicans growth with fluconazole, confirmation, fluorescence, retest (AID 2467); assay type: functional, cell-based
[7] = microbe, parasite or virus in culture; assay type: functional; details: Mycobacterium tuberculosis
Streptococcus = experiment: Group A Streptococcus viability loss, dose response, counter-screen for streptokinase expression inhibitor project, luminescence, BacTiterGlo (AID 1915); assay type: functional, organism-based;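 also: potency for reduction of bacterial viability or growth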
[8] = target: FAD-linked sulfhydryl oxidase ALR (Homo sapiens, UniProt P55789); experiment: inhibitors of human ALR sulfhydryl oxidase, dose response, biochemical, H2O2 detection, luminescence, cherry-pick (AID 493248)
Chain of FAD-linked sulfhydryl oxidase ALR (P55789 whole entry): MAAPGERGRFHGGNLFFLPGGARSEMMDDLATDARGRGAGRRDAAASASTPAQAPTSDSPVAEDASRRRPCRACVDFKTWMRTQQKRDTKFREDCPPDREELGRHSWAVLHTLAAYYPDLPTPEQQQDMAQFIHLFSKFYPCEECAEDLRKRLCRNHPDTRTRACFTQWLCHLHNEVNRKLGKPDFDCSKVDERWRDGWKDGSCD

Cytochrome P450 1A2 = target: T2, Cytochrome P450 1A2 (Homo sapiens, UniProt P05177);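 also: PubChem cytochrome P450 panel assay, CYP1A2 panel member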
T2 sequence (P05177 whole entry): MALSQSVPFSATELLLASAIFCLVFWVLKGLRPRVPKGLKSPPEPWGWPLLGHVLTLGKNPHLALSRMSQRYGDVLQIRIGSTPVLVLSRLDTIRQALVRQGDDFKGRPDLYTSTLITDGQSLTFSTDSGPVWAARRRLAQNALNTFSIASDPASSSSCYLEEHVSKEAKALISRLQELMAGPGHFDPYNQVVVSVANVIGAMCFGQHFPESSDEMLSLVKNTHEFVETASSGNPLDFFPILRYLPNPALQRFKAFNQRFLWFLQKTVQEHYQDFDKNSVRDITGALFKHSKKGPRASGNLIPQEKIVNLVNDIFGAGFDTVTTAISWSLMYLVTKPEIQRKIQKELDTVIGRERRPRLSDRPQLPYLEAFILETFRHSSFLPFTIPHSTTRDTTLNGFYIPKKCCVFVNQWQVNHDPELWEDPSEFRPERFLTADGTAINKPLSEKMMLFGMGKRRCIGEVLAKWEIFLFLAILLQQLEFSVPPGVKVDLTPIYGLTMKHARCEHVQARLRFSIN

[9] = target: Voltage-dependent T-type calcium channel subunit alpha-1H (Homo sapiens, UniProt O95180); assay type: functional;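 also: channel activity triggered by adding a high calcium stimulation buffer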
Chain of Voltage-dependent T-type calcium channel subunit alpha-1H (O95180 whole entry): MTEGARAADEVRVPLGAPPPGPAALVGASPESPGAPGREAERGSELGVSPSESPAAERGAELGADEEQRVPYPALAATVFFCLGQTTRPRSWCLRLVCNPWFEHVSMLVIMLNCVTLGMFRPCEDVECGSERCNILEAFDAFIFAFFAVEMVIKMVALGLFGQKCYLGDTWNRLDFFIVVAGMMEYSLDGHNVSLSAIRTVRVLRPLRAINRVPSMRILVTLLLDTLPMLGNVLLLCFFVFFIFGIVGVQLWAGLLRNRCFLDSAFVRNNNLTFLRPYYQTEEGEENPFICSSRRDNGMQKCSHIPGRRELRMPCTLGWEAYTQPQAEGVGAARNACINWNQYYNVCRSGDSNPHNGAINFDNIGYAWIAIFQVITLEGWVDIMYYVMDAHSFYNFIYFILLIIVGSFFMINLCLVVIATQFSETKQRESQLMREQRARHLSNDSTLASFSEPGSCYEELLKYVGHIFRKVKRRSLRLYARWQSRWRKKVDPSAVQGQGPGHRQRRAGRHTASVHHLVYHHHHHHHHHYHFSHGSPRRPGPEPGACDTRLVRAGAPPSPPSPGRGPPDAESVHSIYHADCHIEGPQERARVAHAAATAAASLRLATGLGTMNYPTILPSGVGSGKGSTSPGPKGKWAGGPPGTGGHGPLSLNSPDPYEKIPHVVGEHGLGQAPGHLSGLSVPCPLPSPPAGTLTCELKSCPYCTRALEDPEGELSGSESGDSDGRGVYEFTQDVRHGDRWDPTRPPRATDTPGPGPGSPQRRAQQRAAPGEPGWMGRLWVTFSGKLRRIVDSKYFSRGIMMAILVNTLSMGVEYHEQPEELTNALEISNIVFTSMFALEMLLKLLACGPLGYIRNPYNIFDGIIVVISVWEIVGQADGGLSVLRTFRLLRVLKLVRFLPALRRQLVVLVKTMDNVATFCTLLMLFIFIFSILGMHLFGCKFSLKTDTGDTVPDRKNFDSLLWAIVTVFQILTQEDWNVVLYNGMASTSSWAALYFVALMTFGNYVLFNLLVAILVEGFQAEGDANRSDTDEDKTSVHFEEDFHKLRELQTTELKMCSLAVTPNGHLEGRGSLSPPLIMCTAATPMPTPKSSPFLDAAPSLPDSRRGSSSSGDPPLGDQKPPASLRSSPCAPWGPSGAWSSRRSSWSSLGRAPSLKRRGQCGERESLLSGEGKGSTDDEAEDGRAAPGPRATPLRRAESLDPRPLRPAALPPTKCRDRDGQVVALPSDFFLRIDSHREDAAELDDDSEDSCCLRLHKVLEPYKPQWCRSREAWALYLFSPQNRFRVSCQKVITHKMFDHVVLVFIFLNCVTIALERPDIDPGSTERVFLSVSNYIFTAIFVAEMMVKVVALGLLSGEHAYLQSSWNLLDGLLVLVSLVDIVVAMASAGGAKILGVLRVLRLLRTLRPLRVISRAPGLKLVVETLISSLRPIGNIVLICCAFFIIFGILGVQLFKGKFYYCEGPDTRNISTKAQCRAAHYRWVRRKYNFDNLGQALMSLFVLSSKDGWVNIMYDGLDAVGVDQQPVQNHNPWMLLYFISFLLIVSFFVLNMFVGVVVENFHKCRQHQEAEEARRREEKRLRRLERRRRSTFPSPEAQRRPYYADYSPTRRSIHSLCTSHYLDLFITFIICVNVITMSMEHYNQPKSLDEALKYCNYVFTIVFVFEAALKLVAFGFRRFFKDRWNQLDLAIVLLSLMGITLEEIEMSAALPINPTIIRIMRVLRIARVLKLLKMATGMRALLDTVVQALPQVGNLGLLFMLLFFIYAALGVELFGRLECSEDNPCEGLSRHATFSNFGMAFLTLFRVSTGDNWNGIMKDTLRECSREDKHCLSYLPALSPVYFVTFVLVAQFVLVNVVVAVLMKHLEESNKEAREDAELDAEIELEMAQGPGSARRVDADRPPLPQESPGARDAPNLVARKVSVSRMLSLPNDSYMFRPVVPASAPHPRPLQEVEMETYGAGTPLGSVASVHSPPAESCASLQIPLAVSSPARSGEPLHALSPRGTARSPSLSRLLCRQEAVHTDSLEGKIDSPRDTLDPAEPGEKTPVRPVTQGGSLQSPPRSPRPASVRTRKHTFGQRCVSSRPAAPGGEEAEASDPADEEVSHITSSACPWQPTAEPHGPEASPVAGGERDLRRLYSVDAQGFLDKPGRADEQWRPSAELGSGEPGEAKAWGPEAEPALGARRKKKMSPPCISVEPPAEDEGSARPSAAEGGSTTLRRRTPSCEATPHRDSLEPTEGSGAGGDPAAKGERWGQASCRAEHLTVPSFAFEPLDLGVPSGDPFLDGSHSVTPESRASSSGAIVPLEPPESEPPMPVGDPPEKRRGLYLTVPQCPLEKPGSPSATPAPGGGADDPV

[10] = target: Induced myeloid leukemia cell differentiation protein Mcl-1 (Homo sapiens, UniProt Q07820); assay type: functional
Chain of Induced myeloid leukemia cell differentiation protein Mcl-1 (Q07820 whole entry): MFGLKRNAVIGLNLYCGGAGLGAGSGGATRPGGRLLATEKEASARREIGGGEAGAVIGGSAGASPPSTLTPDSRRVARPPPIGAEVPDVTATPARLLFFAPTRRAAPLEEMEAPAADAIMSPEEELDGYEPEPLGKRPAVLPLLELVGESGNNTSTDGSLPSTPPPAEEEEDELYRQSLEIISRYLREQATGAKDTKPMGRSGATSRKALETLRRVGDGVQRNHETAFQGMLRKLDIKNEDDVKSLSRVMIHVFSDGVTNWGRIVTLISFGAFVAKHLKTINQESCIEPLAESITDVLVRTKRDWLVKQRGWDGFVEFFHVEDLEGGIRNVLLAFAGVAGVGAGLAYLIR

[11] = target: Dual specificity tyrosine-phosphorylation-regulated kinase 1A (Rattus norvegicus, UniProt Q63470); assay type: biochemical, Homo sapiens
[12] = target: T3, Polyadenylate-binding protein 1 (Homo sapiens, UniProt P11940); experiment: PABP1 MLLE–PAM2 interaction inhibitors, dose response, miRNA deadenylation inhibitor project, biochemical, fluorescence polarization, Cy5-PAM2 peptide, secondary (AID 602260); assay type: functional; details: read-out: IC50_Mean
T3 sequence (P11940 whole entry): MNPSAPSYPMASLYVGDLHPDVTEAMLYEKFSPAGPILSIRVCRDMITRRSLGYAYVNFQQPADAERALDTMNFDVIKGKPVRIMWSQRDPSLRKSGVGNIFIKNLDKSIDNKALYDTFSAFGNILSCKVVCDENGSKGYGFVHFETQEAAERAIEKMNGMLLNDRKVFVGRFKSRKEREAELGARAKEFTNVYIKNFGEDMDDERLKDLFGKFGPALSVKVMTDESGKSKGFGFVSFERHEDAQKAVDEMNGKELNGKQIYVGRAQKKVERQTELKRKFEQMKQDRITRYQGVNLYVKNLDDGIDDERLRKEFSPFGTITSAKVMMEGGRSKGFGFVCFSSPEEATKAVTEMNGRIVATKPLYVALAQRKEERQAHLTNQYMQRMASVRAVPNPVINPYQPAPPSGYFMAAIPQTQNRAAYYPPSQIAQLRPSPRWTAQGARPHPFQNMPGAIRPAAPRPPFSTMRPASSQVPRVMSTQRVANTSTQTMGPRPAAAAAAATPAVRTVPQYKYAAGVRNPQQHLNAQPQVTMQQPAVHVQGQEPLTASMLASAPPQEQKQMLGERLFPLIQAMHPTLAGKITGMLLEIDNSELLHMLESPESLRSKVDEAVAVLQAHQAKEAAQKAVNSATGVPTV

[13] = target: T3, Polyadenylate-binding protein 1; experiment: PABP1 MLLE–PAM2 binding inhibitor potency, dose response, biochemical, fluorescence polarization, FITC-PAM2 peptide (AID 602259); assay type: functional; details: read-out: IC50_Mean

Chain of Nonstructural protein 1 (Q194T2 whole entry): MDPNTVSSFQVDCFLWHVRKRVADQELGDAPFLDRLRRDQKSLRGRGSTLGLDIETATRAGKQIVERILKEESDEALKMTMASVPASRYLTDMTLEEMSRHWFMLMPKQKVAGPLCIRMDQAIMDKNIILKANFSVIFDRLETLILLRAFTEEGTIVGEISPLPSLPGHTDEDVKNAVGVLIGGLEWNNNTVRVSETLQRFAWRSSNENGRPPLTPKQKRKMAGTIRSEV

With `O=C(N/N=C/c1ccccc1O)C(=O)Nc1ccccn1` the IC50 (Nonstructural protein 1) was 10.8 µM (active).

In the case of `O=C(CSc1ccc(-c2ccccn2)nn1)c1ccccc1`, the EC50 [1] is reported as > 120 µM (not active), the EC50 [2] is reported as 8.47 µM (active) and the EC50 (H4) is reported as 56.6 µM (active). For the same compound, the IC50 (Nonstructural protein 1) was 10.9 µM (active).

In the case of `Cc1ccc(-c2cc(C(=O)Nc3cccnc3)c3ccccc3n2)o1`, the IC50 [3] is reported as 9.9 µM (active).

With `Cc1ccc(O)c(C(=O)CC(=O)c2ccccc2Cl)c1` the EC50 [4] was > 160 µM (inactive), the EC50 [5] was 4.15 µM (active) and the EC50 [6] was 2.52 µM (active). The CC50 [7] was 24.4 µM (active) and the EC50 (Streptococcus) was 9.81 µM (active).

With `Cc1ccc2nc(-c3cccc(S(=O)(=O)N(C)C)c3)cn2c1` the AC50 [8] was 0.045 µM (active).

With `Cc1cc(C(=O)N[C@H](c2ccccc2)[C@@]2(C)C[C@@H]2[C@@H](C)C(=O)Nc2ccc3ccccc3c2)n(C)n1` the CC50 [7] was > 40 µM (active) and the AC50 (Cytochrome P450 1A2) was 20 µM (inconclusive).

For `COc1ccc2nc(NC(=O)C3CCCN3S(=O)(=O)c3ccc(C)cc3)sc2c1` (stereo not given), the EC50 [9] was 57.5 µM (active).

In the case of `COc1ccc(C(=O)n2nc(C)c(Br)c2C)cc1`, the IC50 [10] is reported as 2.84 µM (not active).

In the case of `O=C(O)CCCCCNc1nc(S)nc2ccccc12`, the AC50 [8] is reported as 7.38 µM (active).

For `O=C(Nc1cccc(-c2nc3cccnc3s2)c1)c1cccnc1Cl`, the AC50 [11] was 0.651 µM (active).

In the case of `CC(=O)Nc1ccc(S(=O)(=O)NC(C)C(=O)NC(C)c2ccccc2)cc1` (stereo not given), the AC50 [8] is reported as 0.083 µM (active), the IC50 [12] is reported as > 66 µM (inactive) and the IC50 [13] is reported as > 66 µM (inactive).

With `O=[N+]([O-])c1c(O)nc(/C=C\c2cccc(Cl)c2)nc1O` the AC50 [8] was 0.737 µM (active).

For `Cc1ccc(NC(=O)CSCC(=O)N2c3ccccc3CCc3ccccc32)cc1`, the EC50 [9] was 4.65 µM (active).

With `Clc1ccc2[nH]c(COc3ccccc3)nc2c1` the AC50 [11] was 6.23 µM (active).

In the case of `COc1cccc(N2CCN(C3CC(=O)N(c4ccc(Cl)c(Cl)c4)C3=O)CC2)c1` (stereo not given), the EC50 [9] is reported as 6.84 µM (active).
